Data as given in patent US12129265B2, “Therapeutic agents and uses thereof” (Ankh Life Sciences Limited, priority 2020, dated 2024).
In brackets after ≈: the same amount, converted by molar mass. Where two headings read alike, the source gives them in different places.

Columns and labels:
JIM1 cells = experiment: CellTiter-Glo in vitro cell proliferation assay, Example 8; assay type: cell-based, Human; settings: Example 24, JIM1, human myeloma
In short: (§1)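 DMSO-only wells served as controls against compound-treated wells (0.0075–100 μM) in a 72 h, 37 °C proliferation test. Readout: CellTiter-Glo luminescence.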

FaDu cells = experiment: as above; assay type: cell-based, Human; settings: Homo sapiens, Example 24, Squamous
In short: as §1

H929 cells = experiment: as above; assay type: cell-based, Human; settings: NCI-H929, Example 24, H929, human myeloma
In short: as §1

ASPC-1 cells = experiment: as above; assay type: cell-based, Human; settings: Homo sapiens, ASPC1, Example 24, ASPC-1, Pancreatic
In short: as §1

AN3CA cells = experiment: as above; assay type: cell-based, Human; settings: Homo sapiens, AN3-CA, Example 24, Endometrial
In short: as §1

KMS-11 cells = experiment: as above; assay type: cell-based, Human; settings: Example 24, KMS-11, human myeloma
In short: as §1

A498 cells = experiment: as above; assay type: cell-based, Human; settings: Homo sapiens, Example 24, A498, RCC
In short: as §1

H1975 (EGFR mut) cells = experiment: as above; assay type: cell-based, Human; settings: Homo sapiens, NCI-H1975, Example 24, Non Small Cell Lung
In short: as §1

A2780CP cells = experiment: as above; assay type: cell-based, Human; settings: Homo sapiens, A2780C/P, Example 24, Ovarian
In short: as §1

L363 cells = experiment: as above; assay type: cell-based, Human; settings: L-363, Example 24, L363, human myeloma
In short: as §1

KMS-34 cells = experiment: as above; assay type: cell-based, Human; settings: Example 24, KMS-34, human myeloma
In short: as §1

OCI-LY3 cells = experiment: as above; assay type: cell-based, Human; settings: Homo sapiens, Example 24, OCI-LY3, Diffuse Large B-Cell Lymphoma
In short: as §1

KMS-27 cells = experiment: as above; assay type: cell-based, Human; settings: Example 24, KMS-27, human myeloma
In short: as §1

H1650 (EGFR mut) cells = experiment: as above; assay type: cell-based, Human; settings: Homo sapiens, NCI-H1650, Example 24, Non Small Cell Lung
In short: as §1

A2780 cells = experiment: as above; assay type: cell-based, Human; settings: Homo sapiens, Example 24, A2780, Ovarian
In short: as §1

BxPC-3 cells = experiment: as above; assay type: cell-based, Human; settings: Homo sapiens, Example 24, BxPC-3, Pancreatic
In short: as §1

MOLP-8 cells = experiment: as above; assay type: cell-based, Human; settings: Example 24, MOLP-8, human myeloma
In short: as §1

KHM-1B cells = experiment: as above; assay type: cell-based, Human; settings: Example 24, human myeloma
In short: as §1

KMM-1 cells = experiment: as above; assay type: cell-based, Human; settings: Example 24, KMM-1, human myeloma
In short: as §1

MDA-MB-231 cells = experiment: as above; assay type: cell-based, Human; settings: Homo sapiens, Example 24, MDA-MB-231, Triple Negative Breast
In short: as §1

RXF-393 cells = experiment: as above; assay type: cell-based; settings: Homo sapiens, Example 24, RXF-393, RCC
Description: (§2) In this Example, in vitro cell proliferation assays were performed using: (1) Human Myeloma tumor cell lines; (2) Human Lymphoma tumor cell lines; (3) Solid Human tumor cell lines; and (4) Parental, Lenalidomide resistant and Bortezomib resistant Jeko-1 Mantle cell Lymphoma tumor cell lines. The compounds tested were three diharmaline compounds, namely the 518B562 (or simply 562), 560, and 561 compounds. In addition, a monoharmaline product designated as 518F014 was also tested. This monoharmaline product had the following structure:
(§3) Each proliferation assay was carried out as follows. The test cells were plated in growth media using a 384-well microtiter plate at 50 μL volume. The cells were incubated for 24 hours at 37° C. in a humidified incubator. After 24 hours of incubation, the test compounds were added to the test wells in DSMO solvent, at concentrations ranging from 0.0075-100 μM. Control wells received equal volumes of DSMO, without compound. Following drugging, the cells were incubated for 72 hours at 37° C. in a humidified incubator. After this exposure, 100 μL of a 1:1 mixture of sterile water and CellTiter-Glo® reagent (Promega) was added to each well. The plates were then incubated for 60 minutes at room temperature, followed by recording the luminescence value of each well using a luminometer as a measure of cell proliferation.

N87 cells = experiment: as above; assay type: cell-based; settings: Homo sapiens, Example 24, N87, Gastric
Description: as §2, §3

SU-DHL-6 cells = experiment: as above; assay type: cell-based; settings: Homo sapiens, Example 24, SU-DHL-6, Diffuse Large B-Cell Lymphoma
Description: as §2, §3

SU-DHL-4 cells = experiment: as above; assay type: cell-based; settings: Homo sapiens, Example 24, SU-DHL-4, Diffuse Large B-Cell Lymphoma
Description: as §2, §3

[1] = tested on: Human Myeloma, Human Lymphoma, Solid Human tumor and Jeko-1 tumor cell lines; experiment: CellTiter-Glo in vitro cell proliferation assay, Example 8, whole panel; assay type: cell-based; settings: cell lines of Table 16
Description: as §2, §3

COc1ccc2c3c([nH]c2c1)C(CC(CC1=NCCc2c1[nH]c1cc(OC)ccc21)c1cccc(Oc2ccccc2)c1)=NCC3 [compound 594, diharmaline 3-phenoxybenzaldehyde]
IC50 (JIM1 cells; read-out: Mean): 7.67 µg/mL (≈ 12.6 µM)
IC50 (JIM1 cells; read-out: Trial A): 7.41 µg/mL (≈ 12.2 µM)
IC50 (JIM1 cells; read-out: Trial B): 7.92 µg/mL (≈ 13 µM)
IC50 (FaDu cells; read-out: Mean): 4.62 µg/mL (≈ 7.59 µM)
IC50 (FaDu cells; read-out: Trial A): 3.78 µg/mL (≈ 6.21 µM)
IC50 (FaDu cells; read-out: Trial B): 5.45 µg/mL (≈ 8.96 µM)
IC50 (H929 cells; read-out: Mean): 5.96 µg/mL (≈ 9.79 µM)
IC50 (H929 cells; read-out: Trial A): 6.5 µg/mL (≈ 10.7 µM)
IC50 (H929 cells; read-out: Trial B): 5.42 µg/mL (≈ 8.9 µM)
IC50 (ASPC-1 cells; read-out: Mean): 3.47 µg/mL (≈ 5.7 µM)
IC50 (ASPC-1 cells; read-out: Trial A): 2.94 µg/mL (≈ 4.83 µM)
IC50 (ASPC-1 cells; read-out: Trial B): 3.99 µg/mL (≈ 6.56 µM)
IC50 (AN3CA cells; read-out: Mean): 2.79 µg/mL (≈ 4.59 µM)
IC50 (AN3CA cells; read-out: Trial A): 2.79 µg/mL (≈ 4.59 µM)
IC50 (AN3CA cells; read-out: Trial B): 2.8 µg/mL (≈ 4.59 µM)
IC50 (KMS-11 cells; read-out: Mean): 6.04 µg/mL (≈ 9.92 µM)
IC50 (KMS-11 cells; read-out: Trial A): 6.43 µg/mL (≈ 10.6 µM)
IC50 (KMS-11 cells; read-out: Trial B): 5.64 µg/mL (≈ 9.27 µM)
IC50 (A498 cells; read-out: Mean): 4.69 µg/mL (≈ 7.7 µM)
IC50 (A498 cells; read-out: Trial A): 4.82 µg/mL (≈ 7.91 µM)
IC50 (A498 cells; read-out: Trial B): 4.56 µg/mL (≈ 7.49 µM)
IC50 (H1975 (EGFR mut) cells; read-out: Mean): 2.9 µg/mL (≈ 4.76 µM)
IC50 (H1975 (EGFR mut) cells; read-out: Trial A): 2.92 µg/mL (≈ 4.8 µM)
IC50 (H1975 (EGFR mut) cells; read-out: Trial B): 2.87 µg/mL (≈ 4.71 µM)
IC50 (A2780CP cells; read-out: Mean): 3.27 µg/mL (≈ 5.37 µM)
IC50 (A2780CP cells; read-out: Trial A): 3.57 µg/mL (≈ 5.86 µM)
IC50 (A2780CP cells; read-out: Trial B): 2.96 µg/mL (≈ 4.87 µM)
IC50 (L363 cells; read-out: Mean): 3.64 µg/mL (≈ 5.98 µM)
IC50 (L363 cells; read-out: Trial A): 3.67 µg/mL (≈ 6.03 µM)
IC50 (L363 cells; read-out: Trial B): 3.6 µg/mL (≈ 5.92 µM)
IC50 (KMS-34 cells; read-out: Mean): 3.89 µg/mL (≈ 6.39 µM)
IC50 (KMS-34 cells; read-out: Trial A): 4.23 µg/mL (≈ 6.94 µM)
IC50 (KMS-34 cells; read-out: Trial B): 3.55 µg/mL (≈ 5.83 µM)
IC50 (OCI-LY3 cells; read-out: Mean): 5.7 µg/mL (≈ 9.37 µM)
IC50 (OCI-LY3 cells; read-out: Trial A): 3.87 µg/mL (≈ 6.35 µM)
IC50 (OCI-LY3 cells; read-out: Trial B): 7.54 µg/mL (≈ 12.4 µM)
IC50 (KMS-27 cells; read-out: Mean): 4.14 µg/mL (≈ 6.79 µM)
IC50 (KMS-27 cells; read-out: Trial A): 5.54 µg/mL (≈ 9.1 µM)
IC50 (KMS-27 cells; read-out: Trial B): 2.73 µg/mL (≈ 4.49 µM)
IC50 (H1650 (EGFR mut) cells; read-out: Mean): 2.58 µg/mL (≈ 4.23 µM)
IC50 (H1650 (EGFR mut) cells; read-out: Trial A): 2.61 µg/mL (≈ 4.28 µM)
IC50 (H1650 (EGFR mut) cells; read-out: Trial B): 2.55 µg/mL (≈ 4.19 µM)
IC50 (A2780 cells; read-out: Mean): 2.58 µg/mL (≈ 4.23 µM)
IC50 (A2780 cells; read-out: Trial A): 2.67 µg/mL (≈ 4.38 µM)
IC50 (A2780 cells; read-out: Trial B): 2.49 µg/mL (≈ 4.09 µM)
IC50 (BxPC-3 cells; read-out: Mean): 3.39 µg/mL (≈ 5.56 µM)
IC50 (BxPC-3 cells; read-out: Trial A): 3.45 µg/mL (≈ 5.66 µM)
IC50 (BxPC-3 cells; read-out: Trial B): 3.33 µg/mL (≈ 5.46 µM)
IC50 (MOLP-8 cells; read-out: Mean): 2.72 µg/mL (≈ 4.47 µM)
IC50 (MOLP-8 cells; read-out: Trial A): 2.73 µg/mL (≈ 4.49 µM)
IC50 (MOLP-8 cells; read-out: Trial B): 2.7 µg/mL (≈ 4.44 µM)
IC50 (KHM-1B cells; read-out: Mean): 6.65 µg/mL (≈ 10.9 µM)
IC50 (KHM-1B cells; read-out: Trial A): 6.48 µg/mL (≈ 10.6 µM)
IC50 (KHM-1B cells; read-out: Trial B): 6.81 µg/mL (≈ 11.2 µM)
IC50 (KMM-1 cells; read-out: Mean): 2.57 µg/mL (≈ 4.22 µM)
IC50 (KMM-1 cells; read-out: Trial A): 2.53 µg/mL (≈ 4.15 µM)
IC50 (KMM-1 cells; read-out: Trial B): 2.61 µg/mL (≈ 4.28 µM)
IC50 (MDA-MB-231 cells; read-out: Mean): 3.09 µg/mL (≈ 5.08 µM)
IC50 (MDA-MB-231 cells; read-out: Trial A): 3.1 µg/mL (≈ 5.09 µM)
IC50 (MDA-MB-231 cells; read-out: Trial B): 3.08 µg/mL (≈ 5.07 µM)
IC50 (RXF-393 cells; read-out: Mean): 3.16 µg/mL (≈ 5.19 µM)
IC50 (RXF-393 cells; read-out: Trial A): 3.16 µg/mL (≈ 5.19 µM)
IC50 (RXF-393 cells; read-out: Trial B): 3.16 µg/mL (≈ 5.19 µM)
IC50 (N87 cells; read-out: Mean): 4.26 µg/mL (≈ 7 µM)
IC50 (N87 cells; read-out: Trial A): 3.48 µg/mL (≈ 5.72 µM)
IC50 (N87 cells; read-out: Trial B): 5.04 µg/mL (≈ 8.27 µM)
IC50 (SU-DHL-6 cells; read-out: Mean): 2.36 µg/mL (≈ 3.87 µM)
IC50 (SU-DHL-6 cells; read-out: Trial A): 2.48 µg/mL (≈ 4.07 µM)
IC50 (SU-DHL-6 cells; read-out: Trial B): 2.23 µg/mL (≈ 3.67 µM)
IC50 (SU-DHL-4 cells; read-out: Mean): 2.73 µg/mL (≈ 4.49 µM)
IC50 (SU-DHL-4 cells; read-out: Trial A): 2.77 µg/mL (≈ 4.55 µM)
IC50 (SU-DHL-4 cells; read-out: Trial B): 2.7 µg/mL (≈ 4.44 µM)
effectiveness in cell proliferation assays [1]: effective against a wide variety of cancer cells
